The test system of one test is wild-type mice. The experiment in a line: Peripheral OT infusion in wild-type littermate mice. The conditions noted are these: peripheral 50 nmol/day over 3 days. Type of test: in vivo. On the procedure:
The beneficial metabolic effects of OT administration were assayed in the same high-fat diet induced obesity model in rats as in Example 1 and in PPAR-alpha knockout mice (Lee et al., 1995, Mol. Cell. Biol., 15(6):3012-22). HFD-induced obese animals, saline or OT groups (see conditions under Example 1) were subcutaneously infused via minipumps (Alzet®, as above). OT was delivered at a dose of 50 nmol/day/rat during 14 days.
OT was peripherally administered with 50 nmol/day over 3 days in PPAR-alpha knockout (KO) mice and their wild-type littermates. […] Consistently, OT peripheral infusion promoted an increase in the mRNA expression of PPAR-alpha target genes (Acadm, Acox1, Ehhadh, Ucp3) in wild-type mice, while it had no effect in PPAR-alpha knockouts.

For test [1], the system named is HFD-induced obese rats. The experiment in a line: High-fat diet-induced obesity rat model, i.c.v. OT infusion: body weight gain and food intake. Format: in vivo. The conditions noted are these: 14 days, compared with saline. As for the experimental part:
The beneficial metabolic effects of OT administration were assayed in the following high-fat diet-induced obesity model in rats.
Male Wistar (300-325 g) rats were purchased from Charles River (L′Arbresle, France) and housed in individual cages under conditions of controlled temperature (22° C.) and illumination (light on: 07:00-19:00 h). They were allowed free access to water and a 45% high fat diet (HFD) (metabolized energy, 4.56 kcal/g) (Ssniff® EF R/M acc. D12451 (I) mod., ssniff Spezialdiaten GmbH, Soest, Germany) for seven weeks. Body weight, food intake and water intake were recorded daily (08:30-09:30 h). All procedures were approved by the Ethic Committee of our University and were in accordance with the Swiss guidelines for animal experimentation.
To study the role of OT on metabolic homeostasis, the above male Wistar rats were rendered obese by 7 weeks of HFD 45% and were intracerebroventricularly (i.c.v.) infused with either OT (1.6 nmol/d) or saline during the last 2 weeks of the experiment.
After three weeks of HFD feeding, rats were submitted to surgical procedures. They were anesthetized with intramuscular injection of ketamine-xylasine (Ketalar®-Rompun®, Parke-Davis and Bayer, Leverkusen, Switzerland) at 40 and 9 mg/kg, respectively, and implanted with a cannula in the right lateral cerebral ventricle fixed on the skull with dental cement, as previously described (Rohner-Jeanrenaud et al., 1989, Endocrinology 124, 733-9). After one week of recovery, the drinking response to i.c.v. injection of Angiotensin II (5 ng/μl) (Novabiochem, Laüfelfingen, Switzerland) was measured to confirm the correct placement of the cannula. At the end of the fifth week of high fat diet feeding, osmotic minipumps (Alzet®, model 2001, Alza Corporation, Cupertino, Calif.) delivering oxytocin (NeoMPS®, Strasbourg, France) or its vehicle (NaCl 0.9%) were subcutaneously implanted and connected to the i.c.v. cannula via a polyethylene catheter, as previously described (Rohner-Jeanrenaud et al., 1989, above). OT was delivered at a dose of 1.6 nmol/day/rat or 16 nmol/day/rat during 14 days. A group of vehicle-infused rats was pair-fed to the amount of food consumed by OT-infused animals in order to assess the effects of OT independently from changes in food intake. The pair-feeding regimen consisted in giving one-third of the daily food amount in the morning and the remaining two-thirds just before onset of darkness. Rats were sacrificed using isoflurane anesthesia (Halocarbon Laboratories, River Edge, N.J.) and rapid decapitation between 09:00 and 13:00 h. Blood samples were collected into EDTA-coated tubes, centrifuged and plasma stored at −20° C. Tissues were rapidly removed, freeze-clamped, and stored at −80° C.

Test [2] deals with HFD-induced obese rats. Kind of test: Glucose tolerance tests after i.c.v. OT infusion. The conditions noted are these: after 7 weeks of HFD, i.c.v. 1.6 nmol/d. Type of test: in vivo, rat. On the procedure: The impact of OT-induced changes in peripheral lipid metabolism on glucose tolerance and insulin sensitivity was determined by glucose tolerance tests (GTT). Glucose (75 mg/kg body weight) was intraperitoneally administered 4 h after food removal. Blood glucose levels were measured using a glucose meter (One Touch II; LifeScan) from tail blood samples at 0, 15, 30, 60, 90, and 120 min after glucose injection.
Two glucose tolerance tests (GTT) were performed, a first one after […] of HFD (i.e. before the respective saline and OT treatments) and a second one at the end of the 2 week saline or OT infusion (i.e. after 7 weeks of HFD).

With `CC[C@H](C)[C@@H]1NC(=O)[C@H](Cc2ccc(O)cc2)NC(=O)[C@@H](N)CSSC[C@@H](C(=O)N2CCC[C@H]2C(=O)N[C@@H](CC(C)C)C(=O)NCC(N)=O)NC(=O)[C@H](CC(N)=O)NC(=O)[C@H](CCC(N)=O)NC1=O` [OT, Cys-Tyr-Ile-Gln-Asn-Cys-Pro-Leu-Gly (SEQ ID NO: 1)], in the test with wild-type mice, the body weight gain entry is listed as “significant decrease” and the “mRNA expression of PPAR-alpha target genes (Acadm, Acox1, Ehhadh, Ucp3)” value was “increase”. Moreover, in the test on HFD-induced obese rats [1] (i.c.v. 1.6 nmol/d), the “cumulative body weight gain” value is reported as “more than fifty percent decrease”, the cumulative food intake result was “without any effect” and the “food efficiency (ratio of body weight gain to cumulative food intake)” value is given as “marked decrease”. In addition, in the test with HFD-induced obese rats [1] (i.c.v. 16 nmol/d), the cumulative food intake entry is given as “decreased”. Also, the body weight gain entry with HFD-induced obese rats [1] (i.c.v. 16 nmol/d, not observed in pair-fed group) is on record as “significantly lower”. The “insulin oversecretion during GTT” value with HFD-induced obese rats [2] was “not observed”. Moreover, in the test on HFD-induced obese rats [2] (compared to GTT after 3 weeks of HFD), the “glucose tolerance (GTT)” value was “impairment”.

The record behind these values is patent US9101569B2, “Methods for the treatment of insulin resistance” (UNIVERSITE DE GENEVE, priority 2010, dated 2015).
